One data set deals with T1, GRPR (Homo sapiens, UniProt P30550).
T1 construct: host or cells: PC-3 cells
Nature of the data set: GRPR affinity (IC50), competitive binding on PC-3 cells vs [3-[^125I]I-D-Tyr^6]MJ9. The note with it: 2 h, rt. The protocol:
IC50 values of all compounds were determined according to a previously published procedure. Detailed information on culturing PC-3 cells and on the execution of IC50 studies is provided in the supplementary materials. In brief, competitive binding studies were performed in triplicate on PC-3 cells (1.5 × 10^5 cells in 1 mL/well) after incubation at room temperature for 2 h, using [3-[^125I]I-D-Tyr^6]MJ9 (0.2 nM/well) as radiolabeled reference (n = 3).
After removal of the culture medium, the cells were washed once with 500 µL of HBSS (Hank’s balanced salt solution, Biochrom GmbH, Berlin, Germany, with addition of 1% bovine serum albumin (BSA, v/v)) and left in 200 µL HBSS (1% BSA, v/v) for 9 min at rt for equilibration. Next, 25 µL per well of solutions, containing either HBSS (1% BSA, v/v) as control or the respective compound in increasing concentration (10^-10 M – 10^-4 M in HBSS (1% BSA, v/v)), were added with subsequent addition of 25 µL of [3-[^125I]I-D-Tyr^6]MJ9 (2.0 nm) in HBSS (1% BSA, v/v).
All experiments were performed in triplicate for each concentration. After 2 h incubation at rt, the experiment was terminated by removal of the medium and consecutive rinsing with 300 µL of HBSS (1% BSA, v/v). The media of both steps were combined in one fraction and represent the amount of free radiolabeled reference. Afterwards, the cells were lysed with 300 µL of 1 M NaOH for at least 15 min and united with the 300 µL NaOH of the following washing step. Quantification of bound and free radiolabeled reference was accomplished in a γ-counter. IC50 determination for each conjugate was repeated twice.

The nature of data set [1]: Metabolic stability in vitro in human serum (37 °C, 72 ± 2 h). The data set is classed as in vitro ADME. Conditions: ^177Lu-labeled NeoB and UL analogs, n = 3. The protocol: Metabolic stability in vitro was determined applying a procedure published by Linder et al. that was slightly modified. Immediately after labeling, human serum (200 µL) was added to the labeling solution (~ 30 µL) and the mixture was incubated at 37 °C for 72 ± 2 h. Proteins were precipitated by treatment with ice-cold ethanol (150 µL) and ice-cold acetonitrile (450 µL), followed by centrifugation at 13,000 rpm for 5 min. The supernatants were decanted and further analyzed using radio RP-HPLC.

The mark [2] stands for this setting: Cu-complexed, n = 3, read-out: IC50 (nM), Cu-labeled.
Setting [3] is: Ga-complexed, n = 3, read-out: IC50 (nM), Ga-labeled.

The text below walks through data of article PMC12401824, “Studies on the impact of modifications at the Gln-Trp site in RM2-based GRPR ligands” (EJNMMI Research, 2025).

Like-named read-outs stand apart in the source and are kept apart here. Starred links: 1 amine or outer side, 2 acyl side, 3 side chain; linkers in the order of their positions; H or OH if unused. Non-standard residues stand in square brackets, D forms with d. Residues, ends and D or L forms follow the SMILES beside them. *: point of attachment. X2 = O=C(O)CN1CCN(CC(=O)O)CCN(CC(=O)NCc2ccc(NC(=O)COCC(=O)*)cc2)CCN(CC(=O)O)CC1; DOTA = O=C(O)CN1CCN(CC(=O)O)CCN(CC(=O)*)CCN(CC(=O)O)CC1; NODAGA = O=C(O)CN1CCN(CC(=O)O)CCN(C(CCC(=O)*)C(=O)O)CC1; NOTA = O=C(O)CN1CCN(CC(=O)O)CCN(CC(=O)*)CC1; Sta = CC(C)C[C@H](N)[C@@H](O)CC(=O)O; Bta = N[C@@H](Cc1csc2ccccc12)C(=O)O; X1 = O=C(CN1CCC(N[*:1])CC1)[*:2]; NHCH(iBu)2 = CC(C)CC(CC(C)C)N*; hSer = N[C@@H](CCO)C(=O)O

T1 sequence (P30550 whole entry): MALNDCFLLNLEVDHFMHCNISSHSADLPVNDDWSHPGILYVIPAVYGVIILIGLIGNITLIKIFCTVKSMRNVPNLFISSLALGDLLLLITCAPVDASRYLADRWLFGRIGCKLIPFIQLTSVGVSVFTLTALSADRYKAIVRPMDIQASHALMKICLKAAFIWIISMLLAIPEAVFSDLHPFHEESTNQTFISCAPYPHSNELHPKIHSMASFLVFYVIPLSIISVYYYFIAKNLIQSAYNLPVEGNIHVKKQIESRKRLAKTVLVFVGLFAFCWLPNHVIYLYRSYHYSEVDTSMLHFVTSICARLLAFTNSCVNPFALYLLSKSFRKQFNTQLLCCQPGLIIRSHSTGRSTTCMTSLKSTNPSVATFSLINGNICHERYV

Take `CC(C)C[C@H](NC(=O)C[C@H](O)[C@H](CC(C)C)NC(=O)[C@H](Cc1c[nH]cn1)NC(=O)CNC(=O)[C@@H](NC(=O)[C@H](C)NC(=O)[C@H](Cc1c[nH]c2ccccc12)NC(=O)[C@H](CCO)NC(=O)[C@@H](Cc1ccccc1)NC(=O)CN1CCC(NC(=O)CCC(C(=O)O)N2CCN(CC(=O)O)CCN(CC(=O)O)CC2)CC1)C(C)C)C(N)=O` (stereo partly drawn) [NODAGA-[des-DOTA, Hse^7]RM2] ({NODAGA}-[X1][dF][hSer]WAVGH[Sta]L-NH2): the IC50 on GRPR (setting [2]) is 11.8 ± 2.1 nM; at GRPR (setting [3]), 7.2 ± 0.7 nM.

`CC(C)C[C@H](NC(=O)C[C@H](O)[C@H](CC(C)C)NC(=O)[C@H](Cc1c[nH]cn1)NC(=O)CNC(=O)[C@@H](NC(=O)[C@H](C)NC(=O)[C@H](Cc1csc2ccccc12)NC(=O)[C@H](CCC(N)=O)NC(=O)[C@@H](Cc1ccccc1)NC(=O)CN1CCC(NC(=O)CN2CCN(CC(=O)O)CCN(CC(=O)O)CC2)CC1)C(C)C)C(N)=O` [NOTA-[des-DOTA, Bta^8]RM2] ({NOTA}-[X1][dF]Q[Bta]AVGH[Sta]L-NH2): the IC50 at GRPR (setting [2]) stood at 2.8 ± 0.2 nM; at GRPR (setting [3]) it was 1.8 nM.

`CC(C)C[C@H](NC(=O)C[C@H](O)[C@H](CC(C)C)NC(=O)[C@H](Cc1c[nH]cn1)NC(=O)CNC(=O)[C@@H](NC(=O)[C@H](C)NC(=O)[C@H](Cc1c[nH]c2ccccc12)NC(=O)[C@H](CCO)NC(=O)[C@@H](Cc1ccccc1)NC(=O)CN1CCC(NC(=O)CN2CCN(CC(=O)O)CCN(CC(=O)O)CC2)CC1)C(C)C)C(N)=O` [NOTA-[des-DOTA, Hse^7]RM2] ({NOTA}-[X1][dF][hSer]WAVGH[Sta]L-NH2): the IC50 was determined as 14.2 ± 2.7 nM on GRPR (setting [2]) and 8.4 ± 1 nM on GRPR (setting [3]).

As for `CC(C)CC(CC(C)C)NC(=O)[C@H](Cc1cnc[nH]1)NC(=O)CNC(=O)[C@@H](NC(=O)[C@H](C)NC(=O)[C@H](Cc1c[nH]c2ccccc12)NC(=O)[C@H](CCC(N)=O)NC(=O)[C@@H](Cc1ccccc1)NC(=O)COCC(=O)Nc1ccc(CNC(=O)CN2CCN(CC(=O)O)CCN(CC(=O)O)CCN(CC(=O)O)CC2)cc1)C(C)C` [NeoB, reference compound], the “Percentage of intact compound in human serum” value in data set [1] came to 60.8 ± 1.2%.

Regarding `CC(C)CC(CC(C)C)NC(=O)[C@H](Cc1c[nH]cn1)NC(=O)CNC(=O)[C@@H](NC(=O)[C@H](C)NC(=O)[C@H](Cc1csc2ccccc12)NC(=O)[C@H](CCC(N)=O)NC(=O)[C@@H](Cc1ccccc1)NC(=O)COCC(=O)Nc1ccc(CNC(=O)CN2CCN(CC(=O)O)CCN(CC(=O)O)CCN(CC(=O)O)CC2)cc1)C(C)C` [[Bta^8]NeoB] (X2-[dF]Q[Bta]AVGH-{NHCH(iBu)2}; N-terminus and C-terminus assumed), the “Percentage of intact compound in human serum” value in data set [1] is recorded as 36.2 ± 2.6%.

Take `CC(C)C[C@H](NC(=O)C[C@H](O)[C@H](CC(C)C)NC(=O)[C@H](Cc1c[nH]cn1)NC(=O)CNC(=O)[C@@H](NC(=O)[C@H](C)NC(=O)[C@H](Cc1csc2ccccc12)NC(=O)[C@H](CCC(N)=O)NC(=O)[C@@H](Cc1ccccc1)NC(=O)CN1CCC(NC(=O)CN2CCN(CC(=O)O)CCN(CC(=O)O)CCN(CC(=O)O)CC2)CC1)C(C)C)C(N)=O` [[Bta^8]RM2] ({DOTA}-[X1][dF]Q[Bta]AVGH[Sta]L-NH2): the IC50 is 4.2 ± 0.6 nM at GRPR (setting [2]) and 2.3 ± 0.1 nM on GRPR (setting [3]).

Consider `CC(C)C[C@H](NC(=O)C[C@H](O)[C@H](CC(C)C)NC(=O)[C@H](Cc1c[nH]cn1)NC(=O)CNC(=O)[C@@H](NC(=O)[C@H](C)NC(=O)[C@H](Cc1c[nH]c2ccccc12)NC(=O)[C@H](CCO)NC(=O)[C@@H](Cc1ccccc1)NC(=O)CN1CCC(NC(=O)CN2CCN(CC(=O)O)CCN(CC(=O)O)CCN(CC(=O)O)CC2)CC1)C(C)C)C(N)=O` [[Hse^7]RM2] ({DOTA}-[X1][dF][hSer]WAVGH[Sta]L-NH2), for which the IC50 at GRPR (setting [2]) was 33 ± 2.7 nM; at GRPR (setting [3]), 7.7 ± 0.7 nM.
